Experimental data reported in ChEMBL document CHEMBL1949655, “Neomycin-phenolic conjugates: polycationic amphiphiles with broad-spectrum antibacterial activity, low hemolytic activity and weak serum protein binding” (Bioorg Med Chem Lett, 2012).
In brackets after ≈: the same amount, converted by molar mass.

Legend:
[1] = system: Staphylococcus aureus; test: microbe, parasite or virus in culture; assay type: functional; details: ATCC 29213, 24 h
Description: Antibacterial activity against Staphylococcus aureus ATCC 29213 after 24 hrs by macrobroth dilution method

[2] = system: Staphylococcus aureus; test: microbe, parasite or virus in culture; assay type: functional; details: ATCC 33592, 24 h
Description: Antibacterial activity against methicillin-resistant Staphylococcus aureus ATCC 33592 after 24 hrs by macrobroth dilution method

[3] = system: Staphylococcus epidermidis; test: microbe, parasite or virus in culture; assay type: functional; details: Staphylococcus epidermidis, 81388, 24 h
Description: Antibacterial activity against methicillin-susceptible Staphylococcus epidermidis 81388 after 24 hrs by macrobroth dilution method

[4] = system: Staphylococcus epidermidis; test: microbe, parasite or virus in culture; assay type: functional; details: isolate CAN-ICU61589, 24 h
Description: Antibacterial activity against methicillin-resistant Staphylococcus epidermidis isolate CAN-ICU 61589 after 24 hrs by macrobroth dilution method

[5] = system: Enterococcus faecalis; test: microbe, parasite or virus in culture; assay type: functional; details: ATCC 29212, 24 h
Description: Antibacterial activity against Enterococcus faecalis ATCC 29212 after 24 hrs by macrobroth dilution method

[6] = system: Enterococcus faecium; test: microbe, parasite or virus in culture; assay type: functional; details: ATCC 27270, 24 h
Description: Antibacterial activity against Enterococcus faecium ATCC 27270 after 24 hrs by macrobroth dilution method

[7] = system: Streptococcus pneumoniae; test: microbe, parasite or virus in culture; assay type: functional; details: ATCC 49619, 24 h
Description: Antibacterial activity against Streptococcus pneumoniae ATCC 49619 after 24 hrs by macrobroth dilution method

[8] = system: Escherichia coli; test: microbe, parasite or virus in culture; assay type: functional; details: ATCC 25922, 24 h
Description: Antibacterial activity against Escherichia coli ATCC 25922 after 24 hrs by macrobroth dilution method

[9] = system: Escherichia coli; test: microbe, parasite or virus in culture; assay type: functional; details: isolate CAN-ICU 61714, 24 h
Description: Antibacterial activity against Escherichia coli isolate CAN-ICU 61714 after 24 hrs by macrobroth dilution method

[10] = system: Escherichia coli; test: microbe, parasite or virus in culture; assay type: functional; details: isolate CAN-ICU 63074, 24 h
Description: Antibacterial activity against Escherichia coli isolate CAN-ICU 63074 after 24 hrs by macrobroth dilution method

[11] = system: Pseudomonas aeruginosa; test: microbe, parasite or virus in culture; assay type: functional; details: ATCC 27853, 24 h
Description: Antibacterial activity against Pseudomonas aeruginosa ATCC 27853 after 24 hrs by macrobroth dilution method

[12] = system: Pseudomonas aeruginosa; test: microbe, parasite or virus in culture; assay type: functional; details: isolate CAN-ICU 62308, 24 h
Description: Antibacterial activity against Pseudomonas aeruginosa isolate CAN-ICU 62308 after 24 hrs by macrobroth dilution method

[13] = system: Stenotrophomonas maltophilia; test: microbe, parasite or virus in culture; assay type: functional; details: isolate CAN-ICU 62584, 24 h
Description: Antibacterial activity against Stenotrophomonas maltophilia isolate CAN-ICU 62584 after 24 hrs by macrobroth dilution method

[14] = system: Acinetobacter baumannii; test: microbe, parasite or virus in culture; assay type: functional; details: isolate CAN-ICU 63169, 24 h
Description: Antibacterial activity against Acinetobacter baumannii 63169 isolate CAN-ICU after 24 hrs by macrobroth dilution method

[15] = system: Klebsiella pneumoniae; test: microbe, parasite or virus in culture; assay type: functional; details: ATCC 13883, 24 h
Description: Antibacterial activity against Klebsiella pneumoniae ATCC 13883 after 24 hrs by macrobroth dilution method

[16] = system: Staphylococcus aureus; test: microbe, parasite or virus in culture; assay type: functional; details: ATCC 29213, 24 h; remark: listed apart in the source
Description: Antibacterial activity against Staphylococcus aureus ATCC 29213 after 24 hrs by macrobroth dilution method in the presence of bovine serum albumin

[17] = system: Staphylococcus aureus; test: microbe, parasite or virus in culture; assay type: functional; details: ATCC 33592, 24 h; remark: listed apart in the source
Description: Antibacterial activity against methicillin-resistant Staphylococcus aureus ATCC 33592 after 24 hrs by macrobroth dilution method in the presence of bovine serum albumin

[18] = system: Staphylococcus epidermidis; test: microbe, parasite or virus in culture; assay type: functional; details: Staphylococcus epidermidis, 81388, 24 h; remark: listed apart in the source
Description: Antibacterial activity against methicillin-susceptible Staphylococcus epidermidis 81388 after 24 hrs by macrobroth dilution method in the presence of bovine serum albumin

[19] = system: Staphylococcus epidermidis; test: microbe, parasite or virus in culture; assay type: functional, isolate CAN-ICU 61589; details: isolate CAN-ICU61589, 24 h
Description: Antibacterial activity against methicillin-resistant Staphylococcus epidermidis isolate CAN-ICU 61589 after 24 hrs by macrobroth dilution method in the presence of bovine serum albumin

[20] = system: Enterococcus faecalis; test: microbe, parasite or virus in culture; assay type: functional; details: ATCC 29212, 24 h; remark: listed apart in the source
Description: Antibacterial activity against Enterococcus faecalis ATCC 29212 after 24 hrs by macrobroth dilution method in the presence of bovine serum albumin

[21] = system: Enterococcus faecium; test: microbe, parasite or virus in culture; assay type: functional; details: ATCC 27270, 24 h; remark: listed apart in the source
Description: Antibacterial activity against Enterococcus faecium ATCC 27270 after 24 hrs by macrobroth dilution method in the presence of bovine serum albumin

[22] = system: Streptococcus pneumoniae; test: microbe, parasite or virus in culture; assay type: functional; details: ATCC 49619, 24 h; remark: listed apart in the source
Description: Antibacterial activity against Streptococcus pneumoniae ATCC 49619 after 24 hrs by macrobroth dilution method in the presence of bovine serum albumin

[23] = system: Escherichia coli; test: microbe, parasite or virus in culture; assay type: functional; details: ATCC 25922, 24 h; remark: listed apart in the source
Description: Antibacterial activity against Escherichia coli ATCC 25922 after 24 hrs by macrobroth dilution method in the presence of bovine serum albumin

[24] = system: Escherichia coli; test: microbe, parasite or virus in culture; assay type: functional; details: isolate CAN-ICU 61714, 24 h; remark: listed apart in the source
Description: Antibacterial activity against Escherichia coli isolate CAN-ICU 61714 after 24 hrs by macrobroth dilution method in the presence of bovine serum albumin

[25] = system: Escherichia coli; test: microbe, parasite or virus in culture; assay type: functional; details: isolate CAN-ICU 63074, 24 h; remark: listed apart in the source
Description: Antibacterial activity against Escherichia coli isolate CAN-ICU 63074 after 24 hrs by macrobroth dilution method in the presence of bovine serum albumin

[26] = system: Pseudomonas aeruginosa; test: microbe, parasite or virus in culture; assay type: functional; details: ATCC 27853, 24 h; remark: listed apart in the source
Description: Antibacterial activity against Pseudomonas aeruginosa ATCC 27853 after 24 hrs by macrobroth dilution method in the presence of bovine serum albumin

[27] = system: Pseudomonas aeruginosa; test: microbe, parasite or virus in culture; assay type: functional; details: isolate CAN-ICU 62308, 24 h; remark: listed apart in the source
Description: Antibacterial activity against Pseudomonas aeruginosa isolate CAN-ICU 62308 after 24 hrs by macrobroth dilution method in the presence of bovine serum albumin

[28] = system: Stenotrophomonas maltophilia; test: microbe, parasite or virus in culture; assay type: functional; details: isolate CAN-ICU 62584, 24 h; remark: listed apart in the source
Description: Antibacterial activity against Stenotrophomonas maltophilia isolate CAN-ICU 62584 after 24 hrs by macrobroth dilution method in the presence of bovine serum albumin

[29] = system: Acinetobacter baumannii; test: microbe, parasite or virus in culture; assay type: functional; details: isolate CAN-ICU 63169, 24 h; remark: listed apart in the source
Description: Antibacterial activity against Acinetobacter baumannii isolate CAN-ICU 63169 after 24 hrs by macrobroth dilution method in the presence of bovine serum albumin

[30] = system: Klebsiella pneumoniae; test: microbe, parasite or virus in culture; assay type: functional; details: ATCC 13883, 24 h; remark: listed apart in the source
Description: Antibacterial activity against Klebsiella pneumoniae ATCC 13883 after 24 hrs by macrobroth dilution method in the presence of bovine serum albumin

[31] = Toxicity in human erythrocytes assessed as hemolysis at 100 ug/ml by spectrophotometry; details: at 100 µg/mL

SMILES | MIC90 [1] | MIC90 [2] | MIC90 [3] | MIC90 [4] | MIC90 [5] | MIC90 [6] | MIC90 [7] | MIC90 [8] | MIC90 [9] | MIC90 [10] | MIC90 [11] | MIC90 [12] | MIC90 [13] | MIC90 [14] | MIC90 [15] | MIC90 [16] | MIC90 [17] | MIC90 [18] | MIC90 [19] | MIC90 [20] | also measured
Cc1cc(OCCCCc2cn(C[C@H]3O[C@@H](O[C@@H]4[C@@H](O)[C@H](N)C[C@H](N)[C@H]4O[C@H]4O[C@H](CN)[C@@H](O)[C@H](O)[C@H]4N)[C@H](O)[C@@H]3O[C@H]3O[C@@H](CN)[C@@H](O)[C@H](O)[C@H]3N)nn2)cc(C)c1Cl | 16 µg/mL (≈ 18.3 µM) | 128 µg/mL (≈ 146 µM) | 8 µg/mL (≈ 9.13 µM) | 8 µg/mL (≈ 9.13 µM) | 128 µg/mL (≈ 146 µM) | 16 µg/mL (≈ 18.3 µM) | 64 µg/mL (≈ 73 µM) | 32 µg/mL (≈ 36.5 µM) | 16 µg/mL (≈ 18.3 µM) | 128 µg/mL (≈ 146 µM) | 512 µg/mL (≈ 584 µM) | 256 µg/mL (≈ 292 µM) | > 512 µg/mL | 512 µg/mL (≈ 584 µM) | 4 µg/mL (≈ 4.56 µM) | 32 µg/mL (≈ 36.5 µM) | 256 µg/mL (≈ 292 µM) | 8 µg/mL (≈ 9.13 µM) | 8 µg/mL (≈ 9.13 µM) | 128 µg/mL (≈ 146 µM) | MIC90 [21]: 32 µg/mL (≈ 36.5 µM); MIC90 [22]: 256 µg/mL (≈ 292 µM); MIC90 [23]: 32 µg/mL (≈ 36.5 µM); MIC90 [24]: 16 µg/mL (≈ 18.3 µM); MIC90 [25]: 128 µg/mL (≈ 146 µM); MIC90 [26]: > 512 µg/mL; MIC90 [27]: 256 µg/mL (≈ 292 µM); MIC90 [28]: > 512 µg/mL; MIC90 [29]: 512 µg/mL (≈ 584 µM); MIC90 [30]: 4 µg/mL (≈ 4.56 µM); hemolysis at 100 ug/ml [31]: 0.75%
Cc1cc(O)cc(C)c1Cl [CHLOROXYLENOL] | 32 µg/mL (≈ 204 µM) | 64 µg/mL (≈ 409 µM) | 32 µg/mL (≈ 204 µM) | 16 µg/mL (≈ 102 µM) | 256 µg/mL (≈ 1630 µM) | 256 µg/mL (≈ 1630 µM) | 128 µg/mL (≈ 817 µM) | 256 µg/mL (≈ 1630 µM) | 256 µg/mL (≈ 1630 µM) | 256 µg/mL (≈ 1630 µM) | 512 µg/mL (≈ 3270 µM) | 256 µg/mL (≈ 1630 µM) | 128 µg/mL (≈ 817 µM) | 128 µg/mL (≈ 817 µM) | 256 µg/mL (≈ 1630 µM) | 512 µg/mL (≈ 3270 µM) | 512 µg/mL (≈ 3270 µM) | 512 µg/mL (≈ 3270 µM) | 512 µg/mL (≈ 3270 µM) | > 512 µg/mL | MIC90 [21]: > 512 µg/mL; MIC90 [22]: > 512 µg/mL; MIC90 [23]: > 512 µg/mL; MIC90 [24]: > 512 µg/mL; MIC90 [25]: > 512 µg/mL; MIC90 [26]: > 512 µg/mL; MIC90 [27]: > 512 µg/mL; MIC90 [28]: > 512 µg/mL; MIC90 [29]: > 512 µg/mL; MIC90 [30]: > 512 µg/mL
Oc1cc(Cl)ccc1Oc1ccc(Cl)cc1Cl [TRICLOSAN] | 0.5 µg/mL (≈ 1.73 µM) | ≤ 0.25 µg/mL | 1 µg/mL (≈ 3.45 µM) | ≤ 0.25 µg/mL | 8 µg/mL (≈ 27.6 µM) | 16 µg/mL (≈ 55.3 µM) | 128 µg/mL (≈ 442 µM) | ≤ 0.25 µg/mL | 1 µg/mL (≈ 3.45 µM) | 1 µg/mL (≈ 3.45 µM) | > 512 µg/mL | 64 µg/mL (≈ 221 µM) | 512 µg/mL (≈ 1770 µM) | 8 µg/mL (≈ 27.6 µM) | 1 µg/mL (≈ 3.45 µM) | 0.5 µg/mL (≈ 1.73 µM) | 1 µg/mL (≈ 3.45 µM) | 1 µg/mL (≈ 3.45 µM) | 1 µg/mL (≈ 3.45 µM) | 512 µg/mL (≈ 1770 µM) | MIC90 [21]: 512 µg/mL (≈ 1770 µM); MIC90 [22]: 256 µg/mL (≈ 884 µM); MIC90 [23]: 16 µg/mL (≈ 55.3 µM); MIC90 [24]: 16 µg/mL (≈ 55.3 µM); MIC90 [25]: 64 µg/mL (≈ 221 µM); MIC90 [26]: > 512 µg/mL; MIC90 [27]: > 512 µg/mL; MIC90 [28]: > 512 µg/mL; MIC90 [29]: 128 µg/mL (≈ 442 µM); MIC90 [30]: 32 µg/mL (≈ 111 µM)
Cc1cc(OCc2cn(C[C@H]3O[C@@H](O[C@@H]4[C@@H](O)[C@H](N)C[C@H](N)[C@H]4O[C@H]4O[C@H](CN)[C@@H](O)[C@H](O)[C@H]4N)[C@H](O)[C@@H]3O[C@H]3O[C@@H](CN)[C@@H](O)[C@H](O)[C@H]3N)nn2)cc(C)c1Cl | 16 µg/mL (≈ 19.2 µM) | 256 µg/mL (≈ 307 µM) | 8 µg/mL (≈ 9.59 µM) | 8 µg/mL (≈ 9.59 µM) | 64 µg/mL (≈ 76.7 µM) | 128 µg/mL (≈ 153 µM) | 64 µg/mL (≈ 76.7 µM) | 16 µg/mL (≈ 19.2 µM) | 16 µg/mL (≈ 19.2 µM) | 128 µg/mL (≈ 153 µM) | 512 µg/mL (≈ 614 µM) | 256 µg/mL (≈ 307 µM) | > 512 µg/mL | > 512 µg/mL | 8 µg/mL (≈ 9.59 µM) | 32 µg/mL (≈ 38.4 µM) | 512 µg/mL (≈ 614 µM) | 8 µg/mL (≈ 9.59 µM) | 8 µg/mL (≈ 9.59 µM) | 128 µg/mL (≈ 153 µM) | MIC90 [21]: 64 µg/mL (≈ 76.7 µM); MIC90 [22]: 128 µg/mL (≈ 153 µM); MIC90 [23]: 32 µg/mL (≈ 38.4 µM); MIC90 [24]: 16 µg/mL (≈ 19.2 µM); MIC90 [25]: 128 µg/mL (≈ 153 µM); MIC90 [26]: 512 µg/mL (≈ 614 µM); MIC90 [27]: 256 µg/mL (≈ 307 µM); MIC90 [28]: > 512 µg/mL; MIC90 [29]: > 512 µg/mL; MIC90 [30]: 4 µg/mL (≈ 4.79 µM); hemolysis at 100 ug/ml [31]: 0.75%
